Source: ChEMBL document CHEMBL4342466, “Novel, Self-Assembling Dimeric Inhibitors of Human β Tryptase” (J Med Chem, 2020)
Each block holds one molecule with its values, some of them ahead of it. Active and inactive are the calls of the source. The rule behind the calls is not given here.

What was measured:
[1] = Inhibition of human recombinant beta-tryptase pre-incubated for 3 hrs before N-tert-butoxycarbonyl-Gln-Ala-Arg-AMC substrate addition and measured every 30 secs for 15 mins by spectrometry
[2] = Stability in human liver microsomes assessed as parent compound remaining at 15 uM in presence of NADPH incubated for 60 mins; format: ADME, Microsome; conditions: for Stability: microsomes, 1 h, 15 µM; for remaining at 1 h, 15 µM: liver microsomes, read-out: Stability
[3] = Stability in human liver microsomes assessed as parent compound remaining at 15 uM in absence of NADPH incubated for 60 mins; format: ADME, Microsome; conditions: for Stability: microsomes, 1 h, 15 µM; for remaining at 1 h, 15 µM: liver microsomes, read-out: Stability
[4] = Stability in human liver microsomes assessed as parent compound remaining at 15 uM in presence of UDPGA incubated for 60 mins; format: ADME, Microsome; conditions: for Stability: microsomes, 1 h, 15 µM; for remaining at 1 h, 15 µM: liver microsomes, read-out: Stability
[5] = Plasma concentration in mouse xenografted with human HMC1 cells at 10 mg/kg, iv dosed at time 0 and again 24 hrs later and measured at 2 hrs after second dose by LC-MS/MS analysis; format: ADME, organism-based
[6] = Plasma concentration in mouse xenografted with human HMC1 cells at 10 mg/kg, iv dosed at time 0 and again 24 hrs later and measured at 8 hrs after second dose by LC-MS/MS analysis; format: ADME, organism-based
[7] = Plasma concentration in mouse xenografted with human HMC1 cells at 10 mg/kg, iv dosed at time 0 and again 24 hrs later and measured at 24 hrs after second dose by LC-MS/MS analysis; format: ADME, organism-based
[8] = Drug concentration in tumor of mouse xenografted with human HMC1 cells at 10 mg/kg, iv dosed at time 0 and again 24 hrs later and measured at 0 hrs after second dose by LC-MS/MS analysis; format: ADME, organism-based, Neoplasm; conditions: read-out: Drug uptake
[9] = Drug concentration in tumor of mouse xenografted with human HMC1 cells at 10 mg/kg, iv dosed at time 0 and again 24 hrs later and measured at 2 hrs after second dose by LC-MS/MS analysis; format: ADME, organism-based, Neoplasm; conditions: read-out: Drug uptake
[10] = Drug concentration in tumor of mouse xenografted with human HMC1 cells at 10 mg/kg, iv dosed at time 0 and again 24 hrs later and measured at 8 hrs after second dose by LC-MS/MS analysis; format: ADME, organism-based, Neoplasm; conditions: read-out: Drug uptake
[11] = Drug concentration in tumor of mouse xenografted with human HMC1 cells at 10 mg/kg, iv dosed at time 0 and again 24 hrs later and measured at 24 hrs after second dose by LC-MS/MS analysis; format: ADME, organism-based, Neoplasm; conditions: read-out: Drug uptake
Tryptase beta-2 = biological target: T1, Tryptase beta-2 (Mus musculus, UniProt P21845); assay: Inhibition of mouse MCP6 pre-incubated for 3 hrs before N-tert-butoxycarbonyl-Gln-Ala-Arg-AMC substrate addition and measured every 30 secs for 15 mins by spectrometry
T1 sequence (P21845 whole entry): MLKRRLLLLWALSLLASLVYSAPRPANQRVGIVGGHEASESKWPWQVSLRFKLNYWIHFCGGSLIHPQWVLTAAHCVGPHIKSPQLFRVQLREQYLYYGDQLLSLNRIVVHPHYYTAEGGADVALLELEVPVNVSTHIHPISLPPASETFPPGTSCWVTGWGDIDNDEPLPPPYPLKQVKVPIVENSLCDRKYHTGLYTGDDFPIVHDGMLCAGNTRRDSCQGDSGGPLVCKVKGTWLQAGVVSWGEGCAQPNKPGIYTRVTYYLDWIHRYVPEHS

Homo sapiens = species on record: Homo sapiens; assay: Inhibition of human recombinant beta-tryptase assessed as remaining enzyme activity at 10 uM pre-incubated for 3 hrs before N-tert-butoxycarbonyl-Gln-Ala-Arg-AMC substrate addition and measured after 8 hrs by spectrometry relative to control
HMC1 [12] = assay: Inhibition of beta-tryptase in human HMC1 cells assessed as effect on A23187-induced degranulation; format: cell-based
HMC1 [13] = assay: Inhibition of beta-tryptase in human HMC1 cells assessed as effect on tryptase activity by measured cell lysis; format: cell-based
Mus musculus = assay: Inhibition of tryptase activity in tumors of mouse xenografted with human HMC1 cells at 10 mg/kg, iv dosed at time 0 and again 24 hrs later and measured at 24 to 48 hrs after second dose; format: functional, organism-based
[14] = Tmax in C57BL/6 mouse at 50 mg/kg, po measured over 0.25 to 24 hrs by LC-MS/MS analysis; format: ADME, organism-based; conditions: in vivo
[15] = Time for Clast in C57BL/6 mouse at 5 mg/kg, iv measured over 0.25 to 24 hrs by LC-MS/MS analysis; format: ADME, organism-based; conditions: in vivo
[16] = Solubility of the compound; format: physicochemical
[17] = Half life in C57BL/6 mouse at 5 mg/kg, iv measured over 0.25 to 24 hrs by LC-MS/MS analysis; format: ADME, organism-based; conditions: in vivo
[18] = Time for Clast in C57BL/6 mouse at 50 mg/kg, po measured over 0.25 to 24 hrs by LC-MS/MS analysis; format: ADME, organism-based; conditions: in vivo
[19] = Clearance in C57BL/6 mouse at 5 mg/kg, iv measured over 0.25 to 24 hrs by LC-MS/MS analysis; format: ADME, organism-based; conditions: in vivo

Structure (SMILES): NCc1cccc(C2CCN(C(=O)/C=C/c3ccc4c(c3)OB(c3ccc5cccc(C(=O)N6CCC(c7cccc(CN)c7)CC6)c5c3)O4)CC2)c1
- IC50 [1]: 411 nM

Structure (SMILES): NCc1ccc2c(c1)C1(CCN(C(=O)c3cccc(-c4cccc(B(O)O)c4)c3)CC1)CO2
- inhibition (Homo sapiens): inactive
- inhibition (HMC1 [12]): Active
- inhibition (HMC1 [13]): inactive
- inhibition (Mus musculus): Active

Structure (SMILES): NCc1ccc2c(c1)C1(CCN(C(=O)c3cc(O)c(O)c(Cl)c3)CC1)CO2 [listing 1 of 2 here]
- inhibition (Homo sapiens): inactive
- inhibition (HMC1 [12]): Active
- inhibition (HMC1 [13]): inactive
- inhibition (Mus musculus): Active

Structure (SMILES): NCc1ccc2c(c1)C1(CCN(C(=O)c3ccc(Cl)c(-c4cccc(B(O)O)c4)c3)CC1)CO2
- IC50 [1]: 1100 nM
- IC50 (Tryptase beta-2): 599 nM

Structure (SMILES): Cc1cc(C(=O)N2CCC3(CC2)COc2ccc(CN)cc23)cc(-c2cccc(B(O)O)c2)c1C
- IC50 [1]: 1360 nM

Structure (SMILES): COc1cc(C(=O)N2CCC(c3cccc(CN)c3)CC2)cc(O)c1O
- IC50 [1]: 925 nM
- IC50 (Tryptase beta-2): 7430 nM

The next lines start with results.

- Stability [2]: Stable
- Stability [3]: Stable
- Stability [4]: Stable
Structure (SMILES): CONC(=O)c1ccc(C(=O)N2CCC(c3cccc(CN)c3)CC2)cc1O
- IC50 [1]: 120 nM

- concentration at 2 h [5]: 311 nM
- concentration at 8 h [6]: 1.28 nM
- concentration at 24 h [7]: 0.02 nM
- concentration at 0 h [8]: 17.6 nM
- concentration at 2 h [9]: 314 nM
- concentration at 8 h [10]: 58.6 nM
- concentration at 24 h [11]: 8.64 nM
Structure (SMILES): NCc1ccc2c(c1)C1(CCN(C(=O)c3cc(O)c(O)c(Cl)c3)CC1)CO2.O=C(O)C(F)(F)F

- remaining at 1 h, 15 µM [2]: 29%
- remaining at 1 h, 15 µM [3]: 28%
- remaining at 1 h, 15 µM [4]: 18%
Structure (SMILES): NCc1cccc(C2CCN(C(=O)c3cc(O)c(O)c(Cl)c3)CC2)c1
- IC50 [1]: 339 nM
- IC50 (Tryptase beta-2): 17500 nM

- Stability [2]: Stable
- Stability [3]: Stable
- Stability [4]: Stable
Structure (SMILES): CSc1sc(C(=O)N2CCC3(CC2)COc2ccc(CN)cc23)cc1-c1cccc2c1COB2O
- IC50 [1]: 18 nM

- Stability [2]: Stable
- Stability [3]: Stable
- Stability [4]: Stable
Structure (SMILES): NCc1ccc2c(c1)C1(CCN(C(=O)c3ccc(CO)c(O)c3)CC1)CO2
- IC50 [1]: 656 nM
- IC50 (Tryptase beta-2): 4690 nM

- Tmax [14]: 15 min
- Time [15]: 8 h
- solubility [16]: Soluble
- half-life [17]: > 360 min
- Time [18]: 24 h
Structure (SMILES): NCc1ccc2c(c1)C1(CCN(C(=O)c3cc(O)c(O)c(Cl)c3)CC1)CO2 [listing 2 of 2 here]
- IC50 [1]: 238 nM
- IC50 (Tryptase beta-2): 11700 nM

- remaining at 1 h, 15 µM [2]: 52%
- remaining at 1 h, 15 µM [3]: 43%
- remaining at 1 h, 15 µM [4]: 53%
- half-life [17]: 45.6 min
- clearance [19]: 519 mL/min/kg
Structure (SMILES): NCc1cccc(C2CCN(C(=O)c3ccc(O)c(O)c3)CC2)c1
- IC50 [1]: 452 nM
- IC50 (Tryptase beta-2): 2310 nM
